# PubChem BioAssay AID1963840 (Molecular Pharmacology Branch, DTP, NCI, 2024)
# Tested on: 695427-040-R-J1-PDC complex spheroid viability
# Assay: Anticancer human tumor 695427-040-R-J1-PDC patient-derived colon adenocarcinoma cell line growth inhibition [POLQ]
# Conditions: for IC50: curve of first compound; for viability, T/C: stronger effect = lower value
# Summary of the method: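 Complex spheroid viability model combining PDC tumour cells with endothelial (HUVEC) and MSC stromal cells. Novobiocin, ART-558 or RP6685 were tested singly and in combination with standard and investigational anticancer drugs. Each was titrated in half-log steps from near clinical Cmax, or from 10 microM where Cmax was unknown.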
# [1] = second compound 0.0316 µM, first compound 0.0316 µM
# [2] = second compound 0.0316 µM, first compound 0.1 µM
# [3] = second compound 0.0316 µM, first compound 0.316 µM
# [4] = second compound 0.0316 µM, first compound 1 µM
# [5] = second compound 0.0316 µM, first compound 3.16 µM
# [6] = second compound 0.0316 µM, first compound 10 µM
# [7] = second compound 0.1 µM, first compound 0.0316 µM
# [8] = second compound 0.1 µM, first compound 0.1 µM
# [9] = second compound 0.1 µM, first compound 0.316 µM
# [10] = second compound 0.1 µM, first compound 1 µM
# [11] = second compound 0.1 µM, first compound 3.16 µM
# [12] = second compound 0.1 µM, first compound 10 µM
# [13] = second compound 0.316 µM, first compound 0.0316 µM
# [14] = second compound 0.316 µM, first compound 0.1 µM
# [15] = second compound 0.316 µM, first compound 0.316 µM
# [16] = second compound 0.316 µM, first compound 1 µM
# [17] = second compound 0.316 µM, first compound 3.16 µM
# [18] = second compound 0.316 µM, first compound 10 µM
# [19] = second compound 1 µM, first compound 0.0316 µM
# [20] = second compound 1 µM, first compound 0.1 µM
# [21] = second compound 1 µM, first compound 0.316 µM
# [22] = second compound 1 µM, first compound 1 µM
# [23] = second compound 1 µM, first compound 3.16 µM
# [24] = second compound 1 µM, first compound 10 µM
# [25] = second compound 3.16 µM, first compound 0.0316 µM
# [26] = second compound 3.16 µM, first compound 0.1 µM
# [27] = second compound 3.16 µM, first compound 0.316 µM
# [28] = second compound 3.16 µM, first compound 1 µM
# [29] = second compound 3.16 µM, first compound 3.16 µM
# [30] = second compound 3.16 µM, first compound 10 µM
# [31] = second compound 10 µM, first compound 0.0316 µM
# [32] = second compound 10 µM, first compound 0.1 µM
# [33] = second compound 10 µM, first compound 0.316 µM
# [34] = second compound 10 µM, first compound 1 µM
# [35] = second compound 10 µM, first compound 3.16 µM
# [36] = second compound 10 µM, first compound 10 µM
# 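Further: spheroids exposed to compounds for seven days.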
# 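Wherever viability, T/C is given: 100% = DMSO vehicle control viability.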
structure (smiles),measurement,setting,value
COc1cccc2c1C(=O)c1c(O)c3c(c(O)c1C2=O)CC(O)(C(=O)CO)CC3OC1CC(N)C(O)C(C)O1 (stereo not drawn) + Cc1cccc(N(C)C(=O)C2C(O)CCN2c2nc(C)cc(C(F)(F)F)c2C#N)c1,IC50,second compound 0.0316 µM,> 10 µM
same,IC50,second compound 0.1 µM,> 10 µM
same,IC50,second compound 0.316 µM,> 10 µM
same,IC50,second compound 1 µM,> 10 µM
same,IC50,second compound 3.16 µM,8.57 µM
same,IC50,second compound 10 µM,4.41 µM
same,"viability, T/C",[1],97.7%
same,"viability, T/C",[2],96.5%
same,"viability, T/C",[3],89.7%
same,"viability, T/C",[4],75.1%
same,"viability, T/C",[5],67.7%
same,"viability, T/C",[6],51%
same,"viability, T/C",[7],105%
same,"viability, T/C",[8],88.3%
same,"viability, T/C",[9],95.6%
same,"viability, T/C",[10],69%
same,"viability, T/C",[11],66.4%
same,"viability, T/C",[12],55.9%
same,"viability, T/C",[13],103%
same,"viability, T/C",[14],91.8%
same,"viability, T/C",[15],89.1%
same,"viability, T/C",[16],72.1%
same,"viability, T/C",[17],78.6%
same,"viability, T/C",[18],55.7%
same,"viability, T/C",[19],97.5%
same,"viability, T/C",[20],83.1%
same,"viability, T/C",[21],87.3%
same,"viability, T/C",[22],75.2%
same,"viability, T/C",[23],67.5%
same,"viability, T/C",[24],53.9%
same,"viability, T/C",[25],96.6%
same,"viability, T/C",[26],87.9%
same,"viability, T/C",[27],83.3%
same,"viability, T/C",[28],75.7%
same,"viability, T/C",[29],64.9%
same,"viability, T/C",[30],46.8%
same,"viability, T/C",[31],81.6%
same,"viability, T/C",[32],78.9%
same,"viability, T/C",[33],73.3%
same,"viability, T/C",[34],57.7%
same,"viability, T/C",[35],56.4%
same,"viability, T/C",[36],41.8%
O=C(Nc1ccc(O)c(NS(=O)(=O)c2ccc(F)cc2)c1)c1ccc(-c2ccccc2)cc1 + COC1C(OC(N)=O)C(O)C(Oc2ccc3c(O)c(NC(=O)c4ccc(O)c(CC=C(C)C)c4)c(=O)oc3c2C)OC1(C)C,IC50,second compound 0.0316 µM,> 10 µM
same,IC50,second compound 0.1 µM,> 10 µM
same,IC50,second compound 0.316 µM,> 10 µM
same,IC50,second compound 1 µM,> 10 µM
same,IC50,second compound 3.16 µM,> 10 µM
same,IC50,second compound 10 µM,> 10 µM
same,"viability, T/C",[1],104%
same,"viability, T/C",[2],97.7%
same,"viability, T/C",[3],105%
same,"viability, T/C",[4],103%
same,"viability, T/C",[5],103%
same,"viability, T/C",[6],89.3%
same,"viability, T/C",[7],116%
same,"viability, T/C",[8],99.9%
same,"viability, T/C",[9],106%
same,"viability, T/C",[10],102%
same,"viability, T/C",[11],103%
same,"viability, T/C",[12],95.8%
same,"viability, T/C",[13],103%
same,"viability, T/C",[14],103%
same,"viability, T/C",[15],110%
same,"viability, T/C",[16],105%
same,"viability, T/C",[17],104%
same,"viability, T/C",[18],104%
same,"viability, T/C",[19],110%
same,"viability, T/C",[20],107%
same,"viability, T/C",[21],107%
same,"viability, T/C",[22],106%
same,"viability, T/C",[23],108%
same,"viability, T/C",[24],90.8%
same,"viability, T/C",[25],108%
same,"viability, T/C",[26],101%
same,"viability, T/C",[27],102%
same,"viability, T/C",[28],110%
same,"viability, T/C",[29],115%
same,"viability, T/C",[30],89.7%
same,"viability, T/C",[31],104%
same,"viability, T/C",[32],100%
same,"viability, T/C",[33],112%
same,"viability, T/C",[34],105%
same,"viability, T/C",[35],114%
same,"viability, T/C",[36],88.3%
O=C(c1cc(Cc2n[nH]c(=O)c3ccccc23)ccc1F)N1CCN(C(=O)C2CC2)CC1 + Nc1ccc(C#CCN(C(=O)Cc2ncc(C(F)(F)F)cc2C(F)(F)F)c2ccc(F)cc2)nn1,IC50,second compound 0.0316 µM,> 10 µM
same,IC50,second compound 0.1 µM,> 10 µM
same,IC50,second compound 0.316 µM,> 10 µM
same,IC50,second compound 1 µM,> 10 µM
same,IC50,second compound 3.16 µM,> 10 µM
same,IC50,second compound 10 µM,> 10 µM
same,"viability, T/C",[1],106%
same,"viability, T/C",[2],104%
same,"viability, T/C",[3],101%
same,"viability, T/C",[4],103%
same,"viability, T/C",[5],110%
same,"viability, T/C",[6],106%
same,"viability, T/C",[7],108%
same,"viability, T/C",[8],103%
same,"viability, T/C",[9],105%
same,"viability, T/C",[10],112%
same,"viability, T/C",[11],103%
same,"viability, T/C",[12],102%
same,"viability, T/C",[13],99.9%
same,"viability, T/C",[14],102%
same,"viability, T/C",[15],102%
same,"viability, T/C",[16],103%
same,"viability, T/C",[17],114%
same,"viability, T/C",[18],102%
same,"viability, T/C",[19],103%
same,"viability, T/C",[20],100%
same,"viability, T/C",[21],98.7%
same,"viability, T/C",[22],95.9%
same,"viability, T/C",[23],113%
same,"viability, T/C",[24],106%
same,"viability, T/C",[25],103%
same,"viability, T/C",[26],97.7%
same,"viability, T/C",[27],99.9%
same,"viability, T/C",[28],103%
same,"viability, T/C",[29],117%
same,"viability, T/C",[30],104%
same,"viability, T/C",[31],95.8%
same,"viability, T/C",[32],105%
same,"viability, T/C",[33],107%
same,"viability, T/C",[34],96.6%
same,"viability, T/C",[35],97.6%
same,"viability, T/C",[36],96.1%
O=c1[nH]cc(F)c(=O)[nH]1 + Nc1ccc(C#CCN(C(=O)Cc2ncc(C(F)(F)F)cc2C(F)(F)F)c2ccc(F)cc2)nn1,IC50,second compound 0.0316 µM,> 10 µM
same,IC50,second compound 0.1 µM,> 10 µM
same,IC50,second compound 0.316 µM,> 10 µM
same,IC50,second compound 1 µM,> 10 µM
same,IC50,second compound 3.16 µM,> 10 µM
same,IC50,second compound 10 µM,> 10 µM
same,"viability, T/C",[1],111%
same,"viability, T/C",[2],111%
same,"viability, T/C",[3],98.8%
same,"viability, T/C",[4],102%
same,"viability, T/C",[5],112%
same,"viability, T/C",[6],106%
same,"viability, T/C",[7],111%
same,"viability, T/C",[8],106%
same,"viability, T/C",[9],95.1%
same,"viability, T/C",[10],106%
same,"viability, T/C",[11],111%
same,"viability, T/C",[12],100%
same,"viability, T/C",[13],110%
same,"viability, T/C",[14],105%
same,"viability, T/C",[15],99.5%
same,"viability, T/C",[16],112%
same,"viability, T/C",[17],106%
same,"viability, T/C",[18],90.9%
same,"viability, T/C",[19],104%
same,"viability, T/C",[20],98.8%
same,"viability, T/C",[21],90.5%
same,"viability, T/C",[22],107%
same,"viability, T/C",[23],107%
same,"viability, T/C",[24],99.1%
same,"viability, T/C",[25],98.7%
same,"viability, T/C",[26],107%
same,"viability, T/C",[27],97.6%
same,"viability, T/C",[28],93.2%
same,"viability, T/C",[29],103%
same,"viability, T/C",[30],108%
same,"viability, T/C",[31],110%
same,"viability, T/C",[32],103%
same,"viability, T/C",[33],98%
same,"viability, T/C",[34],97.5%
same,"viability, T/C",[35],96.7%
same,"viability, T/C",[36],101%
